Reference: patent publication US9821010B2, “Methods for expansion or depletion of T-regulatory cells” (The General Hospital Corporation, priority 2013, dated 2017)
Entries after “also recorded” stand apart in the source; their conditions may differ.

Assays:
[1] = system: CD25+FOXP3− cell population; assay: Overnight incubation of CD4+ cells with IL-2: CD25+FOXP3- cell population; format: cell-based, human; details: overnight incubation with IL-2
Method: Despite high expression of TNFR2 on Tregs, some TNFR2 expression is also observable on CD4+ T cells that are not true Tregs because they only express intermediate levels of CD25, i.e., CD4^+CD25^mid cells. I therefore studied the impact of overnight incubation on CD25^mid cell subpopulations of IL-2 alone, IL-2 and TNF-α, or IL-2 and TNFR2 agonist, or IL-2 and TNFR2 antagonist. […] However, I observed suppression with IL-2 and TNFR2 antagonist relative to the other three groups.

expanded CD4+CD25+ cells = assay: Intracellular cytokine production of expanded Tregs after PMA and ionomycin; format: cell-based, human; details: PMA and ionomycin 24 hours; Tregs expanded with rapamycin
Method: Expanded CD4^+CD25^+ cells were stimulated with phorbol myristate acetate (PMA) (2 ng/ml) and ionomycin (500 ng/ml) (Sigma) for 24 hours. Monensin (GolgiStop, BD Biosciences) was added for the last 4 hours of incubation. Cells were fixed and permeabilized using Human FOXP3 Buffer Set, followed by staining with fluorochrome-conjugated IFNγ and IL-10 mAbs.
One of the reasons for these Tregs showing high suppression capacity over CD8+ T cells may be due to Tregs lacking the ability to produce IFNγ.

[2] = system: freshly isolated human CD4+ cells; assay: FOXP3 induction by TNF-α in freshly isolated human CD4+ cells; format: cell-based
Method: I cultured freshly isolated human CD4+ cells from 14 human subjects only with TNF-α for 16 hours (FIG. 1B). […] IL-2 is important for Tregs induction and maintenance in mice. […] Thus, the data in FIGS. 1B and 1C confirm that TNF-α […] in vitro.

[3] = co-incubation with IL-2, compared to IL-2 alone

## TNF-α
[1]
  proportion of CD25hiFOXP3− cells: rise in the proportion of CD25^hiFOXP3^− cells
[1]; listed as TNF
  proportion of CD25hiFOXP3− cells: Significant percentage increases
Expanded CD4+CD25+ cells
  percentage of IFNγ+ cells / IFNγ production: lowest percentages of IFNγ+ cells
[2]; TNF-α alone, 16 hours, 14 subjects
  induction of Tregs (inducible FOXP3): no induction of Tregs; also recorded: does not induce FOXP3
[2]; [3]
  induction of Tregs (inducible FOXP3): significant increase in Tregs over IL-2 alone; also recorded: does induce it to higher levels
  percentage of CD4+CD25hi FOXP3 cells (flow cytometry): increased the percentage of CD4+CD25^hi FOXP3 cells; also recorded: greater intracellular induction of FOXP3
